Laboratory results: patent US6140360A, “Antifungal agent” (TOA Gosei Co., Ltd., priority 1996, dated 2000)
Converted amounts (≈) assume the structure as drawn. Where two headings read alike, the source gives them in different places. Blank lines part the entries; values can stand above or below the molecule they belong to.

Experiments:
Candida albicans [1] = test: in vitro antifungal activity (MIC); format: cell-based
Protocol: Using Candida albicans, Aspergillus niger, Aspergillus fumigatus, and Cryptococcus neoformans as test fungi, in vitro antifungal activities were determined to confirm the antifungal activities of cryptoporic acids A, B, and D. The test method and the results are shown below.
The fungal strains used for this test were standard strains provided by Teikyo University, Institute of Medical Mycology. Drug sensitivity was measured using Yeast Morphology Agar (Difco) as media.
The test fungi were spread over slant made of a potato dextrose agar medium (NissuiSeiyaku) and cultured at 30° C. for one day (Candida, Cryptococcus) or four days (Aspergillus niger, Aspergillus neoformans). After culturing, fungi on the slant were washed away with sterile physiological saline supplemented with 0.1% Tween 80. The solution was passed through a filter with 15 μm pores. The fungi were counted on a hemocytometer and adjusted to 10^5 CFU/ml to serve as an inoculation solution. A 0.02 ml portion of this solution was inoculated into Yeast Morphology Agar containing test agents by two-fold serial dilution and cultured at 30° C. for 1 or 4 days.
Antifungal effect was judged with naked eyes. Concentrations at which evident inhibition of growth was observed compared with control media containing no drug were taken as MIC values.
Candida albicans, Aspergillus niger, Aspergillus fumigatus, and Cryptococcus neoformans were used as test fungi. The test for in vitro antifungal activity was conducted in the same manner as in 1 above to confirm antifungal activity.
3. In vitro antifungal activities of cryptoporic acid derivatives represented by formula 3 and a commercially available antifungal agent, Diflucan, were tested using Candida albicans as test fungi in the same manner.

Aspergillus fumigatus [2] = test: Infection-Treating Test, Aspergillus fumigatus infected mice; format: in vivo, mice (ICR); settings: oral in sesame oil, first dose 1 hour after i.v. inoculation (2.0×10^6 CFU/mouse), once a day, total seven days, survival, Weil method
Protocol: (§1) Candida albicans (1.0×10^6 CFU/mouse) or Aspergillus fumigatus (2.0×10^6 CFU/mouse) was suspended in physiological saline, and a 0.2 ml portion of each solution was injected into healthy grown mice (ICR, 4 week-old, female, 19-22 g, Nihon CLEA) via the caudal vein to establish infection. Cryptoporic acid H was dissolved in sesame oil in prescribed concentrations, and a 0.2 ml portion was orally administered per dose to the mice through a stomach probe. The first administration was conducted 1 hour after inoculation of fungi. Thereafter, administration was conducted six times (once a day every 24 hours; for a total of seven days). only the base (0.2 ml) was administered to the control group. Treatment effectiveness was evaluated with ED50 by using the Weil method from the survival rate of treated mice when all the control animals died.

Candida albicans [3] = test: Infection-Treating Test, Candida albicans infected mice; format: in vivo, mice (ICR); settings: oral in sesame oil, first dose 1 hour after i.v. inoculation (1.0×10^6 CFU/mouse), once a day, total seven days, survival, Weil method
Protocol: as §1

Solubility = format: physicochemical; settings: in methanol, acetone, and ethyl acetate
Aspergillus fumigatus [4] = test: in vitro antifungal activity (MIC); format: cell-based; settings: Table 2, Yeast Morphology Agar, 30° C.
Protocol: Using Candida albicans, Aspergillus niger, Aspergillus fumigatus, and Cryptococcus neoformans as test fungi, in vitro antifungal activities were determined to confirm the antifungal activities of cryptoporic acids A, B, and D. The test method and the results are shown below. The fungal strains used for this test were standard strains provided by Teikyo University, Institute of Medical Mycology. Drug sensitivity was measured using Yeast Morphology Agar (Difco) as media. The test fungi were spread over slant made of a potato dextrose agar medium (NissuiSeiyaku) and cultured at 30° C. for one day (Candida, Cryptococcus) or four days (Aspergillus niger, Aspergillus neoformans). After culturing, fungi on the slant were washed away with sterile physiological saline supplemented with 0.1% Tween 80. The solution was passed through a filter with 15 μm pores. The fungi were counted on a hemocytometer and adjusted to 10^5 CFU/ml to serve as an inoculation solution. A 0.02 ml portion of this solution was inoculated into Yeast Morphology Agar containing test agents by two-fold serial dilution and cultured at 30° C. for 1 or 4 days. Antifungal effect was judged with naked eyes. Concentrations at which evident inhibition of growth was observed compared with control media containing no drug were taken as MIC values. […]

[5] = 24 h, Table 1, Yeast Morphology Agar, 30° C., 1 day, read-out: MIC (Candida albicans)

- Solubility (Solubility): Easily soluble
SMILES: C=C1CC[C@H]2C(C)(C)CCC[C@]2(C)[C@H]1COC(C(=O)OC)C(CC(=O)O)C(=O)O[C@H]1CC(C)(C)[C@@H]2CC=C(C=O)[C@H](C=O)[C@@]2(C)C1 (stereo partly drawn) [TG 101]

- Solubility (Solubility): Easily soluble
SMILES: C=C1CC[C@H]2C(C)(C)CCC[C@]2(C)[C@H]1COC(C(=O)OC)C(CC(=O)O)C(=O)O[C@H]1CC(C)(C)[C@@H]2CC=C3COC(O)[C@@H]3[C@@]2(C)C1 (stereo partly drawn) [TG 103]

The remaining lines, values behind:

SMILES: C=C1CC[C@H]2C(C)(C)CCC[C@]2(C)[C@H]1COC(C(=O)OC)C(CC(=O)O)C(=O)OC (stereo partly drawn) [Cryptoporic acid A]
- MIC (Candida albicans [1]; [5]): 25 µg/mL (≈ 58.9 µM)

SMILES: C=C1CCC2C3(C)CCCC2(C)C1COC(C(=O)OC)C(CC(=O)O)C(=O)OCC1(C)CCCC2(C)C(COC(C(=O)OC)C(CC(=O)O)C(=O)OC3)C(=C)CCC12 (stereo not drawn) [Cryptoporic acid D]
- MIC (Candida albicans [1]; [5]): 100 µg/mL (≈ 122 µM)

SMILES: C=C1CC[C@H]2C(C)(C)CCC[C@]2(C)[C@H]1COC(C(=O)O)C(CC(=O)O)C(=O)O (stereo partly drawn) [Cryptoporic acid H]
- ED50 (Aspergillus fumigatus [2]): 2 mg/kg
- ED50 (Candida albicans [3]): 0.32 mg/kg

SMILES: C=C1CC[C@H]2[C@](C)(CO)CCC[C@]2(C)[C@H]1COC(C(=O)OC)C(CC(=O)O)C(=O)OC (stereo partly drawn) [Cryptoporic acid B]
- MIC (Candida albicans [1]; [5]): 25 µg/mL (≈ 56.7 µM)
- MIC (Aspergillus fumigatus [4]): 200 µg/mL (≈ 454 µM)

SMILES: OC(Cn1cncn1)(Cn1cncn1)c1ccc(F)cc1F [Diflucan, reference compound]
- MIC (Candida albicans [1]; TIMM1623): 25 µg/mL (≈ 81.6 µM)
